Assay results reported in patent US6525053B1, “Prostaglandin endoperoxide H synthase biosynthesis inhibitors” (Abbott Laboratories, priority 1997, dated 2003).

Target: T1, recombinant human Cox-2 (Homo sapiens, UniProt P35354)
T1 construct: made in house; host or cells: baculovirus/Sf9 insect cells (microsomes)
T1 sequence (P35354 18-604): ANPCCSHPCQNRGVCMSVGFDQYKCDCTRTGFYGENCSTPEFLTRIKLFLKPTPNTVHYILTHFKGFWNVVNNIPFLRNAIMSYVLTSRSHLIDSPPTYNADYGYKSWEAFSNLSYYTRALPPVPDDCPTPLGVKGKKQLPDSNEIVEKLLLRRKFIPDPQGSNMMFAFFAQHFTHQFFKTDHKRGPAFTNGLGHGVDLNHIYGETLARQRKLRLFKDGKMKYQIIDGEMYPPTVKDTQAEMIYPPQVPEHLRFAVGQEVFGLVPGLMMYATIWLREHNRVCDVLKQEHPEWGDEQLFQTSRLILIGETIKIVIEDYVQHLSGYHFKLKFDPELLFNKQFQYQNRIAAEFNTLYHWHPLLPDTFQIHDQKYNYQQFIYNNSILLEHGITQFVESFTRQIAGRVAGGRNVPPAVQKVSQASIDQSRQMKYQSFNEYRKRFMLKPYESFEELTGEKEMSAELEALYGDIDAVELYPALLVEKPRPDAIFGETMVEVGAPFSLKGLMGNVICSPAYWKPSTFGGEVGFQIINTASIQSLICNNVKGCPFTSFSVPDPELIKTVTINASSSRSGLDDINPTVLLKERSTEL
Experiment: Recombinant human PGHS-2 (Cox-2) enzyme assay, PGE2 by EIA
Assay type: biochemical
Details: at 1000 nM
Experimental: To compare the mean responses of the treatment groups, analysis of variance was applied. Percent inhibition values were determined by comparing the individual treatment mean values to the mean of the control group. Linear regression was used to estimate IC50's/ED50's in appropriate assays.
EIA reagents for prostaglandin determination were purchased from Perseptive Diagnostics, (Cambridge, Mass.). PGE2 levels in lavage fluids were determined after the samples were dried under nitrogen and reconstituted with assay buffer. PGE2 levels in enzyme assays or cell culture media were measured against standards prepared in the same milieu. The immunoassays were conducted as recommended by the manufacturer. The EIA was conducted in 96 well microtiter plates (Nunc Roskilde, Denmark) and optical density was measured using a microplate reader (Vmax, Molecular Devices Corp., Menlo Park, Calif.).
Inhibition of prostaglandin biosynthesis in vitro was evaluated using recombinant human Cox-1 (r-hu Cox1) and Cox-2 (r-hu Cox2) enzyme assays. […] PGE2 production in the presence and absence of the drug was determined by EIA analysis. The EIA was conducted in 96 well microtiter plates (Nunc Roskilde, Denmark) and optical density was measured using a microplate reader (Vmax, Molecular Devices Corp., Menlo Park, Calif.). […] PGE2 levels were measured against standards prepared in the same milieu. […]
In the case of `CS(=O)(=O)c1ccc(-c2cc(=O)n(CC(F)(F)F)nc2-c2ccc(F)cc2)cc1` [Example 22, 2-(2,2,2-Trifluoroethyl)-5-(4-methylsulfonylphenyl)-6-(4-fluorphenyl)-3(2H)-pyridazinone], the “RHUCX2 Cox-2 percent inhibition” value is reported as 46 @ 1000%.

Test system: not given
Experiment: not given
Details: not given
A melting point of 172 to 174 °C was found for `CS(=O)(=O)c1ccc(-c2cc(=O)n(Cc3ccccc3)nc2-c2ccc(F)cc2)cc1` [Example 7, 2-Benzyl-5-(4-methylsulfonylphenyl)-6-(4-fluorophenyl)-3(2H)-pyridazinone] in this work. A melting point of 181 to 182 °C was found for `Cn1nc(-c2ccc(F)cc2)c(-c2ccc(S(C)(=O)=O)cc2)cc1=O` [Example 8, 2-Methyl-5-(4-methylsulfonylphenyl)-6-(4-fluorophenyl)-3(2H)-pyridazinone] in this work. A melting point of 76 to 77 °C was found for `CS(=O)(=O)c1ccc(-c2cc(=O)n(CC3CCCC3)nc2-c2ccc(F)cc2)cc1` [Example 24, 2-Cyclopentylmethyl-5-(4-methylsulfonylphenyl)-6-(4-fluorophenyl)-3(2H)-pyridazinone] in this work. A melting point of 175 to 176 °C was found for `CS(=O)(=O)c1ccc(-c2cc(=O)n(CC3CCCCC3)nc2-c2ccc(F)cc2)cc1` [Example 15, 2-Cyclohexylmethyl-5-(4-methylsulfonylphenyl)-6-(4-fluorophenyl)-3(2H)-pyridazin-one] in this work. A melting point of 177 to 179 °C was found for `CCn1nc(-c2ccc(F)cc2)c(-c2ccc(S(C)(=O)=O)cc2)cc1=O` [Example 9, 2-Ethyl-5-(4-methylsulfonylphenyl)-6-(4-fluorophenyl)-3(2H)-pyridazinone] in this work. A melting point of 260 to 262 °C was found for `CS(=O)(=O)c1ccc(-c2cc(=O)[nH]nc2-c2ccc(F)cc2)cc1` [Example 6, 5-(4-Methylsulfonylphenyl)-6-(4-fluorophenyl)-3(2H)-pyridazinone] in this work. A melting point of 86 to 90 °C was found for `CS(=O)(=O)c1ccc(-c2cc(=O)n(C3CCCCC3)nc2-c2ccc(F)cc2)cc1` [Example 18, 2-Cyclohexyl-5-(4-methylsulfonylphenyl)-6-(4-fluorophenyl)-3(2H)-pyridazinone] in this work. A melting point of 130 to 132 °C was found for `CS(=O)(=O)c1ccc(-c2cc(=O)n(CC3CC3)nc2-c2ccc(F)cc2)cc1` [Example 23, 2-(Cyclopropylmethyl)-5-(4-methylsulfonylphenyl)-6-(4-fluorophenyl)-3(2H)-pyridazinone] in this work. A melting point of 191 to 192 °C was found for `CS(=O)(=O)c1ccc(-c2cc(=O)n(C3CCCC3)nc2-c2ccc(F)cc2)cc1` [Example 25, 2-Cyclopentyl-5-(4-methylsulfonylphenyl)-6-(4-fluorophenyl)-3(2H)-pyridazinone] in this work. A melting point of 185 to 186 °C was found for `CC(c1ccc(F)cc1)n1nc(-c2ccc(F)cc2)c(-c2ccc(S(C)(=O)=O)cc2)cc1=O` (stereo not drawn) [Example 12, 2-(4-Fluoro-α-methylbenzyl)-5-(4-methylsulfonylphenyl)-6-(4-fluorophenyl)-3(2H)-pyridazinone] in this work. A melting point of 168 to 169 °C was found for `C#CCn1nc(-c2ccc(F)cc2)c(-c2ccc(S(C)(=O)=O)cc2)cc1=O` [Example 17, 2-Propargyl-5-(4-methylsulfonylphenyl)-6-(4-fluorophenyl)-3(2H)-pyridazinone] in this work. A melting point of 155 to 157 °C was found for `CCCn1nc(-c2ccc(F)cc2)c(-c2ccc(S(C)(=O)=O)cc2)cc1=O` [Example 13, 2-(n-Propyl)-5-(4-methylsulfonylphenyl)-6-(4-fluorophenyl)-3(2H)-pyridazinone] in this work. A melting point of 81 to 82 °C was found for `CC#CCn1nc(-c2ccc(F)cc2)c(-c2ccc(S(C)(=O)=O)cc2)cc1=O` [Example 19, 2-(2-Butyn-1-yl)-5-(4-methylsulfonylphenyl)-6-(4-fluorophenyl)-3(2H)-pyridazinone] in this work. A melting point of 178 to 180 °C was found for `CS(=O)(=O)c1ccc(-c2cc(=O)n(CC(=O)c3ccccc3)nc2-c2ccc(F)cc2)cc1` [Example 16, 2-Phenacyl-5-(4-methylsulfonylphenyl)-6-(4-fluorophenyl)-3(2H)-pyridazinone] in this work. A melting point of 74 to 76 °C was found for `CS(=O)(=O)c1ccc(-c2cc(=O)n(CC3CCC3)nc2-c2ccc(F)cc2)cc1` [Example 20, 2-(Cyclobutylmethyl)-5-(4-methylsulfonylphenyl)-6-(4-fluorophenyl)-3(2H)-pyridazinone] in this work. A melting point of 71 to 72 °C was found for `CC(C)=CCn1nc(-c2ccc(F)cc2)c(-c2ccc(S(C)(=O)=O)cc2)cc1=O` [Example 21] in this work. A melting point of 65 to 67 °C was found for `CCCCCn1nc(-c2ccc(F)cc2)c(-c2ccc(S(C)(=O)=O)cc2)cc1=O` [Example 14, 2-(n-Pentyl)-5-(4-methylsulfonylphenyl)-6-(4-fluorophenyl)-3(2H)-pyridazinone] in this work. A melting point of 111 to 113 °C was found for `CCCCn1nc(-c2ccc(F)cc2)c(-c2ccc(S(C)(=O)=O)cc2)cc1=O` [Example 11, 2-(n-Butyl)-5-(4-methylsulfonylphenyl)-6-(4-fluorophenyl)-3(2H)-pyridazinone] in this work. A melting point of 150 to 151 °C was found for `CS(=O)(=O)c1ccc(-c2cc(=O)n(Cc3ccc(F)cc3)nc2-c2ccc(F)cc2)cc1` [Example 10, 2-(4-Fluorobenzyl)-5-(4-methylsulfonylphenyl)-6-(4-fluorophenyl)-3(2H)-pyridazinone] in this work.
